# Data published in US20130004581A1, “CONTROLLING UPTAKE BY CELLS” (Ramot at Tel-Aviv University Ltd., priority 2010, published 2013).
# Legend:
# [1] = test system: HaCaT cells; experiment: Proton induced uptake (PIU) in HaCaT cells, FACS; type: cell-based, human; details: pH 5.25; pulse label for last 5 minutes
# Description: FIG. 6 is a chart showing PIU of molecules different by size and charge, in accordance with some embodiments of the invention. Hacat cultures were exposed to solutions of pH 5.2 or pH 7.4 for 5 minutes period, in the presence of different fluorescence molecules (All at 25 μM concentration). FACS analysis results (FL1, geometrical mean±SD) for the cell cultures exposed to pH 5.2 are presented as fold induction relative to results obtained for cells exposed to pH 7.4. This can be used, in some embodiments of the invention, to assess effect of molecule size and charge on uptake.
# FIGS. 7A-7B are charts showing the comparison of PIU in adherent and suspended HaCaT cells, in accordance with some embodiments of the invention. For FIG. 7A, HaCaT cells were tested either at their adherent state, or following harvest at a suspended state. […] FACS analyses (FL1) in terms of geometrical mean±SD are presented as fold induction relative to the constitutive uptake at physiological pH 7.4. n=9 in 3 independent experiments. For FIG. 7B, HaCaT Cells were cultivated at low, medium or high cell density. […] The cultures were harvested and undergone FACS analyses (FL1) in terms of geometrical mean±SD and are presented as fold induction relative to the constitutive uptake of low density cultures. Statistical significance was tested against the confluent culture, n=9 in 3 independent experiments. In the charts, * indicates a t-test p<0.05; and ** indicates a t-test p<0.01. This can be used, in some embodiments of the invention, to assess effect of cell membrane rigidity and/or tissue structure on uptake.
# FIGS. 12A-12B are a chart and images which show the relative change of PIU by modifiers of actin cytoskeleton organization, in accordance with some embodiments of the invention. […].
# [2] = test system: Caco2/TC7 cells; experiment: Proton induced uptake (PIU) in Caco2/TC7 cells, FACS; type: cell-based; details: pH 5; 5 minutes; P<0.001
# Description: Caco-2 cells were cultivated, and were harvested when reaching 80% confluence by the use of trypsin-EDTA. The cell suspensions were immediately diluted in full medium (DMEM with 4.5 mg/ml glucose, 10% FCS), centrifuged and re-suspended in recovery medium (HBSS or PBS).
# Once exposure is terminated the suspension is transferred to a small vial where it is either incubated at 37° C. or immediately cooled down to 4° C. All samples are collected together on ice and then simultaneously analyzed.
# Acidification is imposed by supplementing the suspension with 10 mM MES buffer and the concentrations of HCl required for reaching the experimental pH level.
# The cells are washed by being centrifuged, re-suspended with fresh DMEM (without phenol-red or FCS), incubated at room temperature with probe specific digestive enzymes, where appropriate, centrifuged and washed again.
# For FACS analysis, Trypan-blue (0.01%) and PI (2 μg/ml) are added to the cells suspension to quench residual extracellular fluorescence and stain necrotic cells, respectively.
substance,measurement,setting,value
Dextran-FITC,"initial PIU rate of adherent cultures, folds lower than suspended cells",[1],2.5 folds
same,dextran concentration relative to HT29 cells,[2],2 folds
